According to the NIST ThermoML archive (doi:10.1021/je050031f):
Numbers after ± are expanded uncertainties.

Experiments:
[1] = 100.8 kPa, Liquid
[2] = refractive index (Na D-line) (dimensionless); conditions: 101.33 kPa, Liquid, Standard Abbe refractometry
[3] = xn = mol fraction of the nth substance listed; conditions: 100.8 kPa, Liquid
[4] = refractive index (Na D-line) (dimensionless); xn = mol fraction of the nth substance listed; conditions: 100.8 kPa, Liquid, Standard Abbe refractometry

## CC(C)OC(C)C [diisopropyl ether]
[1]; 288.15 K
  mass density: 729 ± 0.3 kg/m3
  viscosity: 0.347 ± 0.005 mPa·s
[1]; 298.15 K
  mass density: 718.6 ± 0.3 kg/m3
  viscosity: 0.313 ± 0.005 mPa·s
[1]; 308.15 K
  mass density: 707.9 ± 0.3 kg/m3
  viscosity: 0.283 ± 0.005 mPa·s
[2]; 288.15 K
  refractive index: 1.37126 ± 0.00031
[2]; 298.15 K
  refractive index: 1.36537 ± 0.00031
[2]; 308.15 K
  refractive index: 1.35954 ± 0.00031

## CC(C)OC(C)C [diisopropyl ether] + CC1CCCCC1
[3]; 288.15 K, Capillary tube (Ostwald / Ubbelohde) method, x1 = 1
  viscosity: 0.347 mPa·s
[3]; 288.15 K, x1 = 1
  mass density: 729 ± 0.3 kg/m3
[3]; 298.15 K, Capillary tube (Ostwald / Ubbelohde) method, x1 = 1
  viscosity: 0.313 mPa·s
[3]; 298.15 K, x1 = 1
  mass density: 718.6 ± 0.3 kg/m3
[3]; 308.15 K, Capillary tube (Ostwald / Ubbelohde) method, x1 = 1
  viscosity: 0.283 mPa·s
[3]; 308.15 K, x1 = 1
  mass density: 707.9 ± 0.3 kg/m3
[4]; 288.15 K, x1 = 1
  refractive index: 1.37126 ± 0.00031
[4]; 298.15 K, x1 = 1
  refractive index: 1.36537 ± 0.00031
[4]; 308.15 K, x1 = 1
  refractive index: 1.35954 ± 0.00031

## CCO [ethanol]
[1]; 288.15 K
  mass density: 793.6 ± 0.2 kg/m3
  viscosity: 1.31 ± 0.016 mPa·s
[1]; 298.15 K
  mass density: 785.2 ± 0.3 kg/m3
  viscosity: 1.085 ± 0.013 mPa·s
[1]; 308.15 K
  mass density: 776.5 ± 0.3 kg/m3
  viscosity: 0.906 ± 0.011 mPa·s
[2]; 288.15 K
  refractive index: 1.36351 ± 0.00031
[2]; 298.15 K
  refractive index: 1.35935 ± 0.00031
[2]; 308.15 K
  refractive index: 1.35504 ± 0.00031

## CCO [ethanol] + CC1CCCCC1
[3]; 288.15 K, x1 = 1
  mass density: 793.6 ± 0.2 kg/m3
  viscosity: 1.31 ± 0.016 mPa·s
[3]; 298.15 K, x1 = 1
  mass density: 785.2 ± 0.3 kg/m3
  viscosity: 1.085 ± 0.013 mPa·s
[3]; 308.15 K, x1 = 1
  mass density: 776.5 ± 0.3 kg/m3
  viscosity: 0.906 ± 0.011 mPa·s
[4]; 288.15 K, x1 = 1
  refractive index: 1.36351 ± 0.00031
[4]; 298.15 K, x1 = 1
  refractive index: 1.35935 ± 0.00031
[4]; 308.15 K, x1 = 1
  refractive index: 1.35504 ± 0.00031

## CCO [ethanol] + CC(C)OC(C)C
[3]; 288.15 K, x2 = 0
  mass density: 793.6 ± 0.2 kg/m3
  viscosity: 1.31 ± 0.016 mPa·s
[3]; 298.15 K, x2 = 0
  mass density: 785.2 ± 0.3 kg/m3
  viscosity: 1.085 ± 0.013 mPa·s
[3]; 308.15 K, x2 = 0
  mass density: 776.5 ± 0.3 kg/m3
  viscosity: 0.906 ± 0.011 mPa·s
[4]; 288.15 K, x2 = 0
  refractive index: 1.36351 ± 0.00031
[4]; 298.15 K, x2 = 0
  refractive index: 1.35935 ± 0.00031
[4]; 308.15 K, x2 = 0
  refractive index: 1.35504 ± 0.00031

## CC1CCCCC1 [methylcyclohexane]
[1]; 288.15 K
  mass density: 773.4 ± 0.3 kg/m3
  viscosity: 0.784 ± 0.01 mPa·s
[1]; 298.15 K
  mass density: 765 ± 0.3 kg/m3
  viscosity: 0.685 ± 0.009 mPa·s
[1]; 308.15 K
  mass density: 756.3 ± 0.3 kg/m3
  viscosity: 0.6 ± 0.008 mPa·s
[2]; 288.15 K
  refractive index: 1.42578 ± 0.00033
[2]; 298.15 K
  refractive index: 1.42053 ± 0.00033
[2]; 308.15 K
  refractive index: 1.41537 ± 0.00033
